# Laboratory results: PubChem BioAssay AID1259411 (Chemical Carcinogenesis Research Information System (CCRIS), 2018)
# Calls of active or inactive are those of the source. The rule behind the calls is not given here.
# Test system: rodent carcinogenicity bioassays, tumor incidence
# Experiment: CCRIS carcinogenicity studies
# In short: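 NCI-built, expert-reviewed records of carcinogenicity and related test outcomes (mutagenicity, tumor promotion/inhibition) compiled from published and report sources, historical span 1985-2011, not updated.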
structure (smiles),measurement,setting,value
N#Cc1c(Cl)c(Cl)c(Cl)c(C#N)c1Cl,carcinogen call,"Species: MOUSE, Strain/Sex: B6C3F1/FEMALE, Route: ORAL, Dose: 0, 3000, 6000 PPM IN DIET, TWA, Dose: 0, 3000, 6000 PPM IN DIET, TWA",inactive; negative
same,carcinogen call,"Species: MOUSE, Strain/Sex: B6C3F1/MALE, Route: ORAL, Dose: 0, 2688, 5375 PPM IN DIET, TWA, Dose: 0, 2688, 5375 PPM IN DIET, TWA",inactive; negative
same,carcinogen call,"Species: Mouse, Strain/Sex: CD-1/Female (60 per group), Route: Oral, Dose: 0, 750, 1,500, 3,000 ppm in diet for 2 yr, Dose: 0, 750, 1,500, 3,000 ppm in diet for 2 yr, Tumor Site: Type of Lesion: Forestomach: Squamous cell papillomas or carcinomas (0, 2, 6, 5), No dose response",active; positive (ca dpr describes as possible adverse effect; study details not given i
same,carcinogen call,"Species: Mouse, Strain/Sex: CD-1/Male (60 per group), Route: Oral, Dose: 0, 750, 1,500, 3,000 ppm in diet for 2 yr, Dose: 0, 750, 1,500, 3,000 ppm in diet for 2 yr, Tumor Site: Type of Lesion: Kidney: renal tubular adenoma or carcinoma (0, 6, 4, 4). Forestomach: Squamous cell papillomas or carcinomas (0, 2, 5, 2",active; positive without dose response (ca dpr describes as possible adverse effect); st
same,carcinogen call,"Species: RAT, Strain/Sex: OSBORNE-MENDEL/FEMALE, Route: ORAL, Dose: 0, 5063, 10126 PPM IN DIET, TWA, Dose: 0, 5063, 10126 PPM IN DIET, TWA, Tumor Site: Type of Lesion: KIDNEY: ADENOMA OR CARCINOMA (NOS) OR TUBULAR CELL ADENOMA OR TUBULAR CELL ADENOCARCINOMA",active; positive
same,carcinogen call,"Species: RAT, Strain/Sex: OSBORNE-MENDEL/MALE, Route: ORAL, Dose: 0, 5063, 10126 PPM IN DIET, TWA, Dose: 0, 5063, 10126 PPM IN DIET, TWA, Tumor Site: Type of Lesion: KIDNEY: CARCINOMA (NOS) OR TUBULAR CELL ADENOMA OR TUBULAR CELL ADENOCARCINOMA OR ADENOCARCINOMA OR PAPILLARY ADENOMA",active; positive
same,carcinogen call,"Species: Rat, Strain/Sex: Fischer 344/Female (55 per group), Route: Oral, Dose: 0, 1.8, 3.8, 15.2, 183 mg/kg/day in diet for 125 wks, Dose: 0, 1.8, 3.8, 15.2, 183 mg/kg/day in diet for 125 wks, Tumor Site: Type of Lesion: Kidney: Renal tubular adenomas and carcinomas (0, 0, 0, 0, 32 in 53-55 animals). Forestomach: Papillomas and carcinomas",active; positive (study details not given in source)
same,carcinogen call,"Species: Rat, Strain/Sex: Fischer 344/Male (55 per group), Route: Oral, Dose: 0, 1.8, 3.8, 15.2, 183 mg/kg/day in diet for 99 wks (high dose) or 111 wk (all others), Dose: 0, 1.8, 3.8, 15.2, 183 mg/kg/day in diet for 99 wks (high dose) or 111 wk (all others), Tumor Site: Type of Lesion: Kidney: Renal tubular adenomas and carcinomas (1, 1, 1, 4, 23 in 53-55 animals) Forestomach: Papillomas and carcinomas (",active; positive (study details not given in source)
same,carcinogen call,"Species: Rat, Strain/Sex: Sprague-Dawley/Female (50 per group), Route: Oral, Dose: 0, 15, 60, 240, 1,200 mg/kg/day in diet for 2 yr, Dose: 0, 15, 60, 240, 1,200 mg/kg/day in diet for 2 yr, Tumor Site: Type of Lesion: Forestomach: Papillomas or carcinomas (0, 0, 0, 2, 1), Not significant",inactive; negative (ca dpr describes as possible adverse effect; study details not given i
same,carcinogen call,"Species: Rat, Strain/Sex: Sprague-Dawley/Male (50 per group), Route: Oral, Dose: 0, 15, 60, 240, 1,200 mg/kg/day in diet for 2 yr, Dose: 0, 15, 60, 240, 1,200 mg/kg/day in diet for 2 yr, Tumor Site: Type of Lesion: Forestomach: Papillomas or carcinomas (0, 0, 0, 0, 3), Borderline significance",active; positive at highest dose (ca dpr describes as possible adverse effect; study det
O=C1NCCN1c1ncc([N+](=O)[O-])s1,carcinogen call,"Species: HAMSTER, Route: ORAL, Tumor Site: Type of Lesion: FORESTOMACH, URINARY BLADDER",active; positive
same,carcinogen call,"Species: MOUSE, Route: ORAL, Tumor Site: Type of Lesion: FORESTOMACH, MAMMARY GLAND, OVARIES, LUNG, URINARY BLADDER, Tumor Site: Type of Lesion: FORESTOMACH, MAMMARY GLAND, OVARIES, LUNG, URINARY BLADDER",active; positive
CN1C(=O)C(O)N=C(c2ccccc2)c2cc(Cl)ccc21 (centres undefined),carcinogen call,"Species: MOUSE, Strain/Sex: CD-1/FEMALE, Route: ORAL, Dose: 0, 10, 80, 160 MG/KG/D IN DIET FOR 18 MO (STUDY DURATION: 18 MO), Dose: 0, 10, 80, 160 MG/KG/D IN DIET FOR 18 MO (STUDY DURATION: 18 MO)",inactive; negative
same,carcinogen call,"Species: MOUSE, Strain/Sex: CD-1/MALE, Route: ORAL, Dose: 0, 10, 80, 160 MG/KG/D IN DIET FOR 18 MO (STUDY DURATION: 18 MO), Dose: 0, 10, 80, 160 MG/KG/D IN DIET FOR 18 MO (STUDY DURATION: 18 MO)",inactive; negative
same,carcinogen call,"Species: RAT, Strain/Sex: STRAIN-CD/FEMALE, Route: ORAL, Dose: 0, 10, 40, 160 MG/KG/D IN DIET FOR 2 YR (STUDY DURATION: 2 YR), Dose: 0, 10, 40, 160 MG/KG/D IN DIET FOR 2 YR (STUDY DURATION: 2 YR)",inactive; negative
same,carcinogen call,"Species: RAT, Strain/Sex: STRAIN-CD/MALE, Route: ORAL, Dose: 0, 10, 40, 160 MG/KG/D IN DIET FOR 2 YR (STUDY DURATION: 2 YR), Dose: 0, 10, 40, 160 MG/KG/D IN DIET FOR 2 YR (STUDY DURATION: 2 YR)",inactive; negative
Oc1c(Cl)cc(Cl)c(Cl)c1Cc1c(O)c(Cl)cc(Cl)c1Cl,carcinogen call,"Species: RAT, Strain/Sex: F344/FEMALE, Route: ORAL, Dose: 0, 17, 50, 150 PPM IN DIET, Dose: 0, 17, 50, 150 PPM IN DIET",inactive; negative
same,carcinogen call,"Species: RAT, Strain/Sex: F344/MALE, Route: ORAL, Dose: 0, 17, 50, 150 PPM IN DIET, Dose: 0, 17, 50, 150 PPM IN DIET",inactive; negative
CC(C)CCCCCCOC(=O)c1ccccc1C(=O)OCCCCCCC(C)C,carcinogen call,"Species: RAT, Strain/Sex: F344/FEMALE, Route: ORAL, Dose: 0, 0.03, 0.3, 0.6% IN DIET FOR DURATION OF STUDY (STUDY DURATION: 24 MO), Dose: 0, 0.03, 0.3, 0.6% IN DIET FOR DURATION OF STUDY (STUDY DURATION: 24 MO)",inactive; negative
same,carcinogen call,"Species: RAT, Strain/Sex: F344/MALE, Route: ORAL, Dose: 0, 0.03, 0.3, 0.6% IN DIET FOR DURATION OF STUDY (STUDY DURATION: 24 MO), Dose: 0, 0.03, 0.3, 0.6% IN DIET FOR DURATION OF STUDY (STUDY DURATION: 24 MO)",inactive; negative
O=C(O)CCl,carcinogen call,"Species: MOUSE, Strain/Sex: B6C3F1/FEMALE, Route: GAVAGE, Dose: 0, 50, 100 MG/KG IN DEIONIZED WATER 5 D/WK FOR 104 WK (STUDY DURATION: 104 WK), Dose: 0, 50, 100 MG/KG IN DEIONIZED WATER 5 D/WK FOR 104 WK (STUDY DURATION: 104 WK)",inactive; negative
same,carcinogen call,"Species: MOUSE, Strain/Sex: B6C3F1/MALE, Route: GAVAGE, Dose: 0, 50, 100 MG/KG IN DEIONIZED WATER 5 D/WK FOR 104 WK (STUDY DURATION: 104 WK), Dose: 0, 50, 100 MG/KG IN DEIONIZED WATER 5 D/WK FOR 104 WK (STUDY DURATION: 104 WK)",inactive; negative
same,carcinogen call,"Species: RAT, Strain/Sex: F344/FEMALE, Route: GAVAGE, Dose: 0, 15, 30 MG/KG IN DEIONIZED WATER 5 D/WK FOR 104 WK (STUDY DURATION: 105 WK), Dose: 0, 15, 30 MG/KG IN DEIONIZED WATER 5 D/WK FOR 104 WK (STUDY DURATION: 105 WK)",inactive; negative
same,carcinogen call,"Species: RAT, Strain/Sex: F344/MALE, Route: GAVAGE, Dose: 0, 15, 30 MG/KG IN DEIONIZED WATER 5 D/WK FOR 104 WK (STUDY DURATION: 105 WK), Dose: 0, 15, 30 MG/KG IN DEIONIZED WATER 5 D/WK FOR 104 WK (STUDY DURATION: 105 WK)",inactive; negative
same,carcinogen call,"Species: RAT, Strain/Sex: F344/MALE, Route: ORAL, Dose: O, 0.05, 0.5, 2 G/L IN DRINKING WATER FOR 104 WK, THE 2.5 G/L CONCENTRATION WAS LOWERED TO 1.5 G/L AT 8 WK THEN TO 1 G/L, Dose: O, 0.05, 0.5",inactive; negative
CC(Cl)(Cl)Cl,carcinogen call,"Species: MOUSE, Strain/Sex: B6C3F1/FEMALE, Route: INHALATION, Dose: 0, 150, 500, 1500 PPM IN AIR 6 HR/D 5 D/WK FOR 24 MO (STUDY DURATION: 24 MO), Dose: 0, 150, 500, 1500 PPM IN AIR 6 HR/D 5 D/WK FOR 24 MO (STUDY DURATION: 24 MO)",inactive; negative
same,carcinogen call,"Species: MOUSE, Strain/Sex: B6C3F1/MALE, Route: INHALATION, Dose: 0, 150, 500, 1500 PPM IN AIR 6 HR/D 5 D/WK FOR 24 MO (STUDY DURATION: 24 MO), Dose: 0, 150, 500, 1500 PPM IN AIR 6 HR/D 5 D/WK FOR 24 MO (STUDY DURATION: 24 MO)",inactive; negative
same,carcinogen call,"Species: RAT, Strain/Sex: F344/FEMALE, Route: INHALATION, Dose: 0, 150, 500, 1500 PPM IN AIR 6 HR/D 5 D/WK FOR 24 MO (STUDY DURATION: 24 MO), Dose: 0, 150, 500, 1500 PPM IN AIR 6 HR/D 5 D/WK FOR 24 MO (STUDY DURATION: 24 MO)",inactive; negative
same,carcinogen call,"Species: RAT, Strain/Sex: F344/MALE, Route: INHALATION, Dose: 0, 150, 500, 1500 PPM IN AIR 6 HR/D 5 D/WK FOR 24 MO (STUDY DURATION: 24 MO), Dose: 0, 150, 500, 1500 PPM IN AIR 6 HR/D 5 D/WK FOR 24 MO (STUDY DURATION: 24 MO)",inactive; negative
